Key:
CDK12 = CDK12 (Homo sapiens, UniProt Q9NYV4); experiment: CE-MS intact mass shift and MS/MS of the labeled peptide; format: cell-based
CDK9 [1] = biological target: T1, CDK9 (Homo sapiens, UniProt P50750); experiment: KINOMEscan profiling / biochemical kinase assay
CDK2 = CDK2 (Homo sapiens, UniProt P24941); experiment: biochemical kinase inhibition
CDK9 [2] = biological target: T1, CDK9; experiment: biochemical kinase inhibition
CDK7 = CDK7 (Homo sapiens, UniProt P50613); experiment: biochemical kinase inhibition
Chain of CDK7 (P50613 2-346): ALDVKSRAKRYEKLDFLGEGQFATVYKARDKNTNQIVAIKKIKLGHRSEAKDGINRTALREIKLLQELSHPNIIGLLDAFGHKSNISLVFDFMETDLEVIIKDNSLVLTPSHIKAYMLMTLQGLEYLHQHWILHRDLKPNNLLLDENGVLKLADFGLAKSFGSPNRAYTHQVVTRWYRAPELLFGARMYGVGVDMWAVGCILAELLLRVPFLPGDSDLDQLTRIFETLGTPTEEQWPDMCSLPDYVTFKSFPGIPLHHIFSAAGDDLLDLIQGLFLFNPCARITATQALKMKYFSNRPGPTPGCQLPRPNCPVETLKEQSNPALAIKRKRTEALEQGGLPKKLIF
Chain of CDK7 (P51946 whole entry partner): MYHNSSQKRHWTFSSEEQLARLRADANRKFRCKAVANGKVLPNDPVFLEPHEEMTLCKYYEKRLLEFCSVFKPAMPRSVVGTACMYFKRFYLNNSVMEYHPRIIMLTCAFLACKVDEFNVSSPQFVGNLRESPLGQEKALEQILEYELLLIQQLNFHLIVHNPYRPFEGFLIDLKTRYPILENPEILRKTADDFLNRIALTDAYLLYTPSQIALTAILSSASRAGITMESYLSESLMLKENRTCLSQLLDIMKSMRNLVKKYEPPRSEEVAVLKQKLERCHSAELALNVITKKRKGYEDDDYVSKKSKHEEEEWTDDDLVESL

T1 sequence (P50750 whole entry): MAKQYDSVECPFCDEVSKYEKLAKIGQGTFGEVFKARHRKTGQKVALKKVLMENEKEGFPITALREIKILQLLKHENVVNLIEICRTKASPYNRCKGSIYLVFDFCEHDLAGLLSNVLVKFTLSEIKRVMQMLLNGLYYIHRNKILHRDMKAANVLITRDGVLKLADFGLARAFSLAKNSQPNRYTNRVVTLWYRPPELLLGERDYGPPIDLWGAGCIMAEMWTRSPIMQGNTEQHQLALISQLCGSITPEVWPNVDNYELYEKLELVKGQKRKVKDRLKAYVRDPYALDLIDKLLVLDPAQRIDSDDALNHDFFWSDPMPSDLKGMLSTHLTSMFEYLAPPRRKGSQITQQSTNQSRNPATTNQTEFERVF
Chain of CDK12 (Q9NYV4 whole entry): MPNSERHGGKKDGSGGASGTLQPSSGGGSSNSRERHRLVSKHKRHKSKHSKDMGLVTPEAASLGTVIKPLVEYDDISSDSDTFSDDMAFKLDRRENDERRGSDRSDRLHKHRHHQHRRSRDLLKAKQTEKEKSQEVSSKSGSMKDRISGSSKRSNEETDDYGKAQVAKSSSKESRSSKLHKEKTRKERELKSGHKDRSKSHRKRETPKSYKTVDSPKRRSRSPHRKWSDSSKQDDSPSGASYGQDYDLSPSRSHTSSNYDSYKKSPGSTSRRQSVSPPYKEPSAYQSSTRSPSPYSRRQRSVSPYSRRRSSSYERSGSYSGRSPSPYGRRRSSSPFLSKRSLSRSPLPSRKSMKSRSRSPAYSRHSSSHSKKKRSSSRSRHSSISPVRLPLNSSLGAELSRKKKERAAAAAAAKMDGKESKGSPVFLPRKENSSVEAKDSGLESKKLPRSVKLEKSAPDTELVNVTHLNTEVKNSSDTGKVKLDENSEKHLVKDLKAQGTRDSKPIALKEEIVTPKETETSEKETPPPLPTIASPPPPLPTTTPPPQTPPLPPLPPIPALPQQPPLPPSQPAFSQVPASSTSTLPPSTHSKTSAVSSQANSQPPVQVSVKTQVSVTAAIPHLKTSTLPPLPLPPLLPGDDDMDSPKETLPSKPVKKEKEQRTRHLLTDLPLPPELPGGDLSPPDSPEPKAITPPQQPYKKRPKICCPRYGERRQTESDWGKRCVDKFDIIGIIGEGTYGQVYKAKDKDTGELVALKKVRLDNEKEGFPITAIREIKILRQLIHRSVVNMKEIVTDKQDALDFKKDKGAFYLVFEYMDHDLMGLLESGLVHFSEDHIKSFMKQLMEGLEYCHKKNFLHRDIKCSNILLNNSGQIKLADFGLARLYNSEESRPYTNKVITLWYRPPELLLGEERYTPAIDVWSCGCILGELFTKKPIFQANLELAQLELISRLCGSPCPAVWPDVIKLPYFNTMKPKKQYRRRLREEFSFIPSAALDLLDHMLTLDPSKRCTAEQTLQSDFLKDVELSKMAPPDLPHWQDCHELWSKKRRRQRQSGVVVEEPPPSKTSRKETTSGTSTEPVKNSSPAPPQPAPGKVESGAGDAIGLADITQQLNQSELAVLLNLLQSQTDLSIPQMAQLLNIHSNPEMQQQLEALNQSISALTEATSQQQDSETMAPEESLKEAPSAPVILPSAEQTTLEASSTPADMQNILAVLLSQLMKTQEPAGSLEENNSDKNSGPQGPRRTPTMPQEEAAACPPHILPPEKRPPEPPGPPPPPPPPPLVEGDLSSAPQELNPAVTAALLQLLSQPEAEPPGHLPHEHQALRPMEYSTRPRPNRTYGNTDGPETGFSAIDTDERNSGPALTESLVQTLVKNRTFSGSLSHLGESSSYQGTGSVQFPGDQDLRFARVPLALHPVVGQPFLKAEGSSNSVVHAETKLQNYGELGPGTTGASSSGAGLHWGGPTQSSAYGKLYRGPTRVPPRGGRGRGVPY
Chain of CDK12 (O75909 whole entry partner): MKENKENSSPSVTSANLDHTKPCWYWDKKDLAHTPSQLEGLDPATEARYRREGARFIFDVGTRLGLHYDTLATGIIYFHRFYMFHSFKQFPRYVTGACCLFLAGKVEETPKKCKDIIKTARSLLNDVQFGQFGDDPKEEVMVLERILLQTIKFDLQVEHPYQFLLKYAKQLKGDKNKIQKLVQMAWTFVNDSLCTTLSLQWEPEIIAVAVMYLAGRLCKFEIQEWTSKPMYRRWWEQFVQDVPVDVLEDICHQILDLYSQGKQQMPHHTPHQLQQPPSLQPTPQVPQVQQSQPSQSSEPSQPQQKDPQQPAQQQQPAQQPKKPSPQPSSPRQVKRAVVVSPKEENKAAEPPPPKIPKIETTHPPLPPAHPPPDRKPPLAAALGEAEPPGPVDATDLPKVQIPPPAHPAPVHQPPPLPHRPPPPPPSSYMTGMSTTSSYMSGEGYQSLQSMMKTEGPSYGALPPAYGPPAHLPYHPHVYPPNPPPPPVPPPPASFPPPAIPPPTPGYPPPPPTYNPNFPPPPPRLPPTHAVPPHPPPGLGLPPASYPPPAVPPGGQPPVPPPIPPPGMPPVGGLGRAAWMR

| CE-MS intact mass shift and MS/MS of the labeled peptide; bio-THZ1 competition p (CDK12) | SMILES | KINOMEscan profiling / biochemical kinase assay (CDK9 [1]) | biochemical kinase inhibition (CDK2) | biochemical kinase inhibition (CDK9 [2]) | biochemical kinase inhibition (CDK7) |
| --- | --- | --- | --- | --- | --- |
| < 25 nM | C=CC(=O)Nc1cccc(Nc2cc(N3CCCC[C@H]3CCO)nc3c(CC)cnn23)c1 [E9, (S)-N-(3-(3-Ethyl-5-(2-(2-Hydroxyethyl)piperidin-1-yl)pyrazolo[1,5-a]pyrimidin-7-ylamino)phenyl)acrylamide] | E9 still retained fairly strong biochemical activity against CDK9 |  |  |  |
|  | CCC(=O)Nc1cccc(Nc2cc(N3CCCC[C@H]3CCO)nc3c(CC)cnn23)c1 [E9-R, (S)-N-(3-((3-Ethyl-5-(2-(2-Hydroxyethyl)piperidin-1-yl)pyrazolo[1,5-a]pyrimidin-7-yl)amino)phenyl)propionamide] |  | E9-R exhibited improved biochemical inhibition of CDK2, CDK7, and CDK9 compared with E9 | E9-R exhibited improved biochemical inhibition of CDK2, CDK7, and CDK9 compared with E9 | E9-R exhibited improved biochemical inhibition of CDK2, CDK7, and CDK9 compared with E9 |

— article PMC6389506 (Cell chemical biology, 2017)
